Consider 2 molecules from paper PMC9011347, “Small-Molecule Inhibitors Targeting Lipolysis in Human Adipocytes” (Journal of the American Chemical Society, 2022).

What all share (format): biochemical
In test [1] the target is T1, human ATGL (aa 1–288) (Homo sapiens, UniProt Q96AD5).
T1 construct: human ATGL (aa 1–288); host or cells: Expi293 cells, crude lysate
Nature of the test: TAG hydrolase assay, wild-type and chimeric ATGL variants in Expi293 lysates. The source says:
(§1) Since experimental three-dimensional (3D) structures for ATGL are currently not available, we utilized chimeric variants of mouse and human ATGL for the identification of binding sites. The constructs c1–c9 (Figure 5a) comprised the N-terminal […] of ATGL, which are sufficient to retain enzymatic activity.[50] In variants c1 and c2, exchange of the N-terminal 158 aa between human and mouse ATGL switched inhibitor reactivity.
Figure 5 Analysis of chimeric proteins comprising human and mouse ATGL. (a) Schematic view of the minimal active domain of wild-type and chimeric ATGL variants (c1–c9). Nonidentical aa are indicated in blue and red for mouse and human ATGL, respectively. ATGL variants were expressed in Expi293 cells and TAG hydrolase activity was determined in cell lysates in the presence or absence of NG-497 (10 μM) and Atglistatin (10 μM), respectively. Inhibition of ATGL variants by respective inhibitors (tick mark) and lack of inhibition (cross) is indicated at the right edge. The expression of all ATGL variants was confirmed by Western blotting analysis (Figure S6). […]
Expression of recombinant ATGL constructs and preparation of cell lysates. […] Protein concentrations were determined using Bio-Rad protein assay (Bio-Rad 785, Bio-Rad Laboratories, Munich, Germany) using BSA as standard. […]

For test [2], the target named is T2, c1 (human aa 1–158 and mouse aa 159–288) (Homo sapiens, UniProt Q96AD5, L232M/Q250R/R257Q).
T2 construct: c1 (human aa 1–158 and mouse aa 159–288); host or cells: Expi293 cells, crude lysate
Nature of the test: TAG hydrolase assay, chimeric ATGL variants. As to conditions: chimeric variant c1.
Text: as §1
(§2) Figure 5 Analysis of chimeric proteins comprising human and mouse ATGL. (a) Schematic view of the minimal active domain of wild-type and chimeric ATGL variants (c1–c9). Nonidentical aa are indicated in blue and red for mouse and human ATGL, respectively. ATGL variants were expressed in Expi293 cells and TAG hydrolase activity was determined in cell lysates in the presence or absence of NG-497 (10 μM) and Atglistatin (10 μM), respectively. Inhibition of ATGL variants by respective inhibitors (tick mark) and lack of inhibition (cross) is indicated at the right edge. The expression of all ATGL variants was confirmed by Western blotting analysis (Figure S6). (b) Dose-dependent inhibition of human ATGL (aa 1–288) and c1 (human aa 1–158 and mouse aa 159–288) by NG-497. (c) Dose-dependent inhibition of mouse ATGL (aa 1–288) and c2 (mouse aa 1–158 and human aa 159–288) by Ai. IC50 values are shown in the insets. Data are presented as relative inhibition of respective DMSO controls and are indicated as mean ± SD. (d) 3D homology model of the minimal active domain of mouse ATGL (M1–L254) depicted as a cartoon. Residues 1–178 are in blue, and residues 179–254 are in gray. S47 and D166 comprising the active site are represented as green sticks. T101, C106, R109, N111, and S133 are colored in orange, A60, N68, I69, T93, C97, and T146 are colored in magenta. TEXT PRINTED IN THE PICTURE: (b) NG-497: IC50 [μM] (human): 1.3±0.1; IC50 [μM] (c1): 1.3±0.1 | (b) Ai: IC50 [μM] (human): n.det.; IC50 [μM] (c1): n.det. | (c) NG-497: IC50 [μM] (mouse): n.det.; IC50 [μM] (c2): n.det. | (c) Ai: IC50 [μM] (mouse): 2.5±0.3; IC50 [μM] (c2): 2.4±0.1 […]
(§3) Experimental details, materials, and methods
(§4) Expression of recombinant ATGL constructs and preparation of cell lysates. Expi293 cells were cultivated in Expi293 Expression Medium (GIBCO, Thermo Fisher Scientific, Waltham, USA) at standard conditions (37°C, 5% CO2, 95% humidified atmosphere, 125 rpm). DNA constructs containing ATGL from different species and chimeric ATGL variants in pcDNA3.1(+)myc-His C Vector were obtained from BioCat GmbH (Heidelberg, Germany). […] Protein concentrations were determined using Bio-Rad protein assay (Bio-Rad 785, Bio-Rad Laboratories, Munich, Germany) using BSA as standard. […]

In test [3] the target is T3, c2 (mouse aa 1–158 and human aa 159–288) (Mus musculus, UniProt Q8BJ56, M232L/Q257R/R250Q).
T3 construct: host or cells: Expi293 cells, cell lysate
Nature of the test: TAG hydrolase assay, chimeric ATGL variants. As to conditions: chimeric variant c2.
Text: as §1, §2, §3, §4

Test [4] deals with T4, mouse ATGL I69F (Mus musculus, UniProt Q8BJ56, I69F).
T4 construct: host or cells: Expi293 cells, cell lysate
Nature of the test: TAG hydrolase assay, humanized mouse ATGL variants. As to conditions: variant I69F, NG-497 (10 μM) or Atglistatin (10 μM). Here is the method: as §2
(§5) The region between aa 60 and 146 of human and mouse ATGL comprises 12 nonidentical aa. We generated 3D homology models for the minimal active domain of mouse ATGL to obtain more detailed insight into the topology of the relevant region (Figure 5d). Based on this model, aa T101, C106, R109, N111, and S133 locate at peripheral (loop) regions (indicated in orange, Figure 5d). […] For all other nonidentical aa (indicated in magenta, Figure 5d), we generated variants with single aa substitutions. The humanized variants A60V, N68K, T93I, and C97F were inactivated by Ai but not NG-497 (Figure 5a).
as §3
(§6) Expression of recombinant ATGL constructs and preparation of cell lysates. Expi293 cells were cultivated in Expi293 Expression Medium (GIBCO, Thermo Fisher Scientific, Waltham, USA) at standard conditions (37°C, 5% CO2, 95% humidified atmosphere, 125 rpm). DNA constructs containing ATGL from different species and chimeric ATGL variants in pcDNA3.1(+)myc-His C Vector were obtained from BioCat GmbH (Heidelberg, Germany). Cells were transfected with ExpiFectamine293 Transfection Kit (GIBCO) in Opti-Mem reduced serum medium (GIBCO) according to the manufacturer’s instructions. After 48 h, cells were harvested by centrifugation and washed three times with PBS. Cells were disrupted in buffer A (0.25 M sucrose, 1 mM EDTA, 1 mM dithiothreitol, 20µg/ml leupeptin, 2 µg/ml antipain, 1 µg/ml pepstatin, pH 7.0) by sonication (Virsonic 475, Virtis, Gardiner, USA). Nuclei and debris were removed by centrifugation at 1,000 g and 4°C for 10 min. Protein concentrations were determined using Bio-Rad protein assay (Bio-Rad 785, Bio-Rad Laboratories, Munich, Germany) using BSA as standard.
(§7) Expression and purification of mouse CGI-58. CGI-58 was expressed and purified as described 1. In brief, the coding sequence of mouse Cgi-58 was cloned into pHis-Sumo and co-transformed with the plasmid pTf16 expressing the chaperone Tig into E. coli BL21(DE3). Cells were cultured overnight at 37°C and 180 rpm in the presence of 40 µg/ml kanamycin and 34 µg/ml chloramphenicol. Thereafter, cells were transferred into fresh LB medium, grown until OD600 of 0.6, and expression was induced by the addition of 0.5 mM IPTG. After overnight incubation at 30°C, cells were harvested at 4,500 x g and 4°C for 20 min, […]

In test [5] the target is T5, mouse ATGL T146G (Mus musculus, UniProt Q8BJ56, T146G).
T5 construct: host or cells: Expi293 cells, cell lysate
Nature of the test: TAG hydrolase assay, humanized mouse ATGL variants. As to conditions: variant T146G, NG-497 (10 μM) or Atglistatin (10 μM). Here is the method:
as §2, §5, §3, §6, §7

The structures appear in SMILES notation. “And” between values parts separate entries of the source, which are not always exact repeats. Equal entries are not always repeated. Where two headings read alike, the source gives them in different places.

T3 sequence (Q8BJ56 with tags, fused parts or gaps M232L/R250Q/Q257R): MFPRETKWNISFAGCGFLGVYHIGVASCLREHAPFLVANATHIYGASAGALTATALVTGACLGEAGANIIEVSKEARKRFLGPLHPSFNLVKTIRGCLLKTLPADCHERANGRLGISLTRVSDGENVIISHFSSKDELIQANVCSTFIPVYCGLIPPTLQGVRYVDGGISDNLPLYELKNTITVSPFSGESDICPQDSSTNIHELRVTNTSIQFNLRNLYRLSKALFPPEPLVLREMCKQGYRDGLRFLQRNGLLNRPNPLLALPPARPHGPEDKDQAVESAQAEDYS
T5 sequence (Q8BJ56 whole entry T146G): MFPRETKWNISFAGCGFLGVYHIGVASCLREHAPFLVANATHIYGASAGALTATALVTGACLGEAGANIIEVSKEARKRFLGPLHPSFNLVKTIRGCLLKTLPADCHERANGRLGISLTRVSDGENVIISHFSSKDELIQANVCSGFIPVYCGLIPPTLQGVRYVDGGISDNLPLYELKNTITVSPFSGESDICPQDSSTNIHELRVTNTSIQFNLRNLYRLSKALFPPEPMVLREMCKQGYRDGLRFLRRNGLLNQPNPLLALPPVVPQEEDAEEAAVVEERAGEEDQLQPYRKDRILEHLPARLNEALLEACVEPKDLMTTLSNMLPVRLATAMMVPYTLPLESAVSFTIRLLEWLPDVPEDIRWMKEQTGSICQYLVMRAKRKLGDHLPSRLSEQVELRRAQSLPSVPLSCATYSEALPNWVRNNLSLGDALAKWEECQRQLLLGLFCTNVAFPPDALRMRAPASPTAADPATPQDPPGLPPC
T1 sequence (Q96AD5 1-288): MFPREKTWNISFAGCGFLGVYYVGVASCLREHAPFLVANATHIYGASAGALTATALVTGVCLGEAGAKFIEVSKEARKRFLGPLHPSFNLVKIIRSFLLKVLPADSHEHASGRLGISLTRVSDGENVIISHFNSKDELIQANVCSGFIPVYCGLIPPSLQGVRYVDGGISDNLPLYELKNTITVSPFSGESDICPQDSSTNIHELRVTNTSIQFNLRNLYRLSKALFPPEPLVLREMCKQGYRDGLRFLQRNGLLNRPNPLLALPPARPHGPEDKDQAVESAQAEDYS
T4 sequence (Q8BJ56 whole entry I69F): as the sequence (Q8BJ56 whole entry T146G) above, with I69F, G146T counted along it
T2 sequence (Q96AD5 with tags, fused parts or gaps L232M/Q250R/R257Q): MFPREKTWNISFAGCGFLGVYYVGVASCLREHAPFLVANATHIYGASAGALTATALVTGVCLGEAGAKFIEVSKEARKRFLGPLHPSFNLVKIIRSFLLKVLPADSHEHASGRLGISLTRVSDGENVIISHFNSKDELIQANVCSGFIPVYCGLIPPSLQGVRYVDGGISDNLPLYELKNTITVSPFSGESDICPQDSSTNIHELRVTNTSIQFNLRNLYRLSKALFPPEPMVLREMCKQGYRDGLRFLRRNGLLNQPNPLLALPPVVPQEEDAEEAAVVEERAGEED

Broadly, the IC50 is the concentration needed to halve the response being measured. On to `CN(C)C(=O)Nc1cccc(-c2ccc(N(C)C)cc2)c1` [Atglistatin, reference compound], for which the IC50 result in test [1] is “ineffective”; in test [2], “ineffective”; in test [3] (read-out: IC50), ~2500 nM and 2400 nM. Moreover, the “inhibition of TAG hydrolase activity” value in test [4] and in test [5] was “neither inhibited” in each case.

Take `CCOc1ccc(-c2cc(OC)cc(C(=O)OC(C)C)n2)cc1` [NG-497]: the results for the 50% inhibitory concentration (IC50) in test [1] (read-out: IC50), in test [2] (read-out: IC50) and in test [3] were 1300 nM, 1300 nM and “ineffective”, respectively. In addition, the “inhibition of TAG hydrolase activity” value in test [4] and in test [5] was “neither inhibited” throughout.
